Here are results for 16 molecules from patent US20060281771A1, “SYNERGISTIC MODULATION OF FLT3 KINASE USING AMINOQUINOLINE AND AMINOQUINAZOLINE KINASE MODULATORS” (priority 2005, published 2006).

The subject of one assay is MV4-11 cells. In words: Inhibition of MV4-11 cell proliferation (CellTiterGlo, 72 h). It is filed as cell-based. To be noted: Homo sapiens; 72 h growth inhibition. How it is done:
To assess the cellular potency of the FLT3 inhibitors of Formula I′, FLT3 specific growth inhibition was measured in the leukemic cell line MV4-11 (ATCC Number: CRL-9591). […] MV4-11 cells cannot grow and survive without active FLT3ITD.
To measure proliferation inhibition by test compounds, the luciferase based CellTiterGlo reagent (Promega), which quantifies total cell number based on total cellular ATP concentration, was used. Cells are plated at 10,000 cells per well in 100 ul of in RPMI media containing penn/strep, 10% FBS and 1 ng/ml GM-CSF or 1 ng/ml IL-3 for MV4-11 and Baf3 cells respectively.
Compound dilutions or 0.1% DMSO (vehicle control) are added to cells and the cells are allowed to grow for 72 hours at standard cell growth conditions (37° C., 5% CO2). For activity measurements in MV4-11 cells grown in 50% plasma, cells were plated at 10,000 cells per well in a 1:1 mixture of growth media and human plasma (final volume of 100 μL). To measure total cell growth an equal volume of CellTiterGlo reagent was added to each well, according to the manufacturer's instructions, and luminescence was quantified. Total cell growth was quantified as the difference in luminescent counts (relative light units, RLU) of cell number at Day 0 compared to total cell number at Day 3 (72 hours of growth and/or compound treatment). One hundred percent inhibition of growth is defined as an RLU equivalent to the Day 0 reading. Zero percent inhibition was defined as the RLU signal for the DMSO vehicle control at Day 3 of growth. All data points are an average of triplicate samples. […] Inhibition and IC50 data analysis was done with GraphPad Prism using a non-linear regression fit with a multiparamater, sigmoidal dose-response (variable slope) equation.
MV4-11 cells express the FLT3 internal tandem duplication mutation, and thus are entirely dependent upon FLT3 activity for growth. […] In contrast, the Baf3 cell proliferation is driven by the cytokine IL-3 and thus are used as a non-specific toxicity control for test compounds.

Assay [1] addresses T1, wild-type FLT3 phosphorylation in Baf3 FLT3 cells (Homo sapiens, UniProt P36888).
T1 construct: host or cells: Baf3 (murine B cell lymphoma line)
T1 sequence (P36888 27-993): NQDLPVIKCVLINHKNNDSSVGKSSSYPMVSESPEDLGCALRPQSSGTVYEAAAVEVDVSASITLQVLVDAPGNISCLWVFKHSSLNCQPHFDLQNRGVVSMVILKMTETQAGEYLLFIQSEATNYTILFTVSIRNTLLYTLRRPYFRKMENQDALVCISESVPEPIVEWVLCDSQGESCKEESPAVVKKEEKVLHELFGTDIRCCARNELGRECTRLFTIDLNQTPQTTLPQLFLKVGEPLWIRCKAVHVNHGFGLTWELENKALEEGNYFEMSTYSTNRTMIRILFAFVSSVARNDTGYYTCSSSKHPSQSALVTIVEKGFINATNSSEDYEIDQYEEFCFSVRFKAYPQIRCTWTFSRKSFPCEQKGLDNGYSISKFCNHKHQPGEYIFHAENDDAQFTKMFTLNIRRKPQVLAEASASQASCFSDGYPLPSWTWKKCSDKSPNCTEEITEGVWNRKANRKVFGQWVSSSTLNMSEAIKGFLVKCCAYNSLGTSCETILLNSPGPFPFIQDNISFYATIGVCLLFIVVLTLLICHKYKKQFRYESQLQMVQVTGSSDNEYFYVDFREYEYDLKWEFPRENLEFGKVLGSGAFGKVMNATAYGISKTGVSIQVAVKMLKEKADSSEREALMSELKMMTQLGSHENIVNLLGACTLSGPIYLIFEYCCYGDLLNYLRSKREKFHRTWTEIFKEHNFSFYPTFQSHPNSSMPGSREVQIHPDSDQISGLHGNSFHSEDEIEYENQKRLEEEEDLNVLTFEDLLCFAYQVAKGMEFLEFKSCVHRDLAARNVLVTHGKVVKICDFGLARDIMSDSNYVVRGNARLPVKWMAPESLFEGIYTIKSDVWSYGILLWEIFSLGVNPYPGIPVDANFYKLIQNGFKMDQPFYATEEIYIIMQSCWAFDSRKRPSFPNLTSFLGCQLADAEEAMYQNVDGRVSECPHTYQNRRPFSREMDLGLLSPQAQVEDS
In words: Cell-based FLT3 receptor ELISA. To be noted: FLT ligand-induced FLT3 phosphorylation. As for the experimental part: Specific cellular inhibition of FLT ligand-induced wild-type FLT3 phosphorylation was measured in the following manner: Baf3 FLT3 cells overexpressing the FLT3 receptor were obtained from Dr. Michael Heinrich (Oregon Health and Sciences University). The Baf3 FLT3 cell lines were created by stable transfection of parental Baf3 cells (a murine B cell lymphoma line dependent on the cytokine IL-3 for growth) with wild-type FLT3. Cells were selected for their ability to grow in the absence of IL-3 and in the presence of FLT3 ligand.
Baf3 cells were maintained in RPMI 1640 with 10% FBS, penn/strep and 10 ng/ml FLT ligand at 37° C., 5% CO2. To measure direct inhibition of the wild-type FLT3 receptor activity and phosphorylation a sandwich ELISA method was developed similar to those developed for other RTKs (see Sadick, M D, Sliwkowski, M X, Nuijens, A, Bald, L, Chiang, N, Lofgren, J A, Wong W L T. Analysis of Heregulin-Induced ErbB2 Phosphorylation with a High-Throughput Kinase Receptor Activation Enzyme-Linked Immunsorbent Assay, Analytical Biochemistry. 1996; 235:207-214 and Baumann C A, Zeng L, Donatelli R R, Maroney A C. Development of a quantitative, high-throughput cell-based enzyme-linked immunosorbent assay for detection of colony-stimulating factor-1 receptor tyrosine kinase inhibitors. J Biochem Biophys Methods. 2004; 60:69-79.). 200 μL of Baf3FLT3 cells (1×10^6/mL) were plated in 96 well dishes in RPMI 1640 with 0.5% serum and 0.01 ng/mL IL-3 for 16 hours prior to 1 hour compound or DMSO vehicle incubation. Cells were treated with 100 ng/mL Flt ligand (R&D Systems Cat# 308-FK) for 10 min. at 37° C. Cells were pelleted, washed and lysed in 100 ul lysis buffer (50 mM Hepes, 150 mM NaCl, 10% Glycerol, 1% Triton-X-100, 10 mM NaF, 1 mM EDTA, 1.5 mM MgCl2, 10 mM NaPyrophosphate) supplemented with phosphatase (Sigma Cat# P2850) and protease inhibitors (Sigma Cat #P8340). Lysates were cleared by centrifugation at 1000×g for 5 minutes at 4° C. Cell lysates were transferred to white wall 96 well microtiter (Costar #9018) plates coated with 50 ng/well anti-FLT3 antibody (Santa Cruz Cat# sc-480) and blocked with SeaBlock reagent (Pierce Cat#37527). Lysates were incubated at 4° C. for 2 hours. Plates were washed 3× with 200 ul/well PBS/0.1% Triton-X-100. Plates were then incubated with 1:8000 dilution of HRP-conjugated anti-phosphotyrosine antibody (Clone 4G10, Upstate Biotechnology Cat#16-105) for 1 hour at room temperature. Plates were washed 3× with 200 ul/well PBS/0.1% Triton-X-100. Signal detection with Super Signal Pico reagent (Pierce Cat#37070) was done according to manufacturer's instruction with a Berthold microplate luminometer. All data points are an average of triplicate samples. […] Inhibition and IC50 data analysis was done with GraphPad Prism using a non-linear regression fit with a multiparamater, sigmoidal dose-response (variable slope) equation.
(In general: In an ELISA, binding on a coated surface is turned into a signal by an enzyme label.)

Take `CC(C)c1ccc(NC(=O)NC2CCN(c3ncnc4ccccc34)CC2)cc1` [Compound 63, 1-(4-Isopropyl-phenyl)-3-(1-quinazolin-4-yl-piperidin-4-yl)-urea]: the results for the IC50 (with MV4-11 cells; in assay [1]) were 502 nM and 20 nM, respectively.
As for `COc1cc2ncnc(N3CCC(NC(=O)Nc4ccc(N(C)C)cc4)CC3)c2cc1OC` [Compound 62, 1-[1-(6,7-Dimethoxy-quinazolin-4-yl)-piperidin-4-yl]-3-(4-dimethylamino-phenyl)-urea], the figures for the half-inhibitory concentration (IC50) (in the assay with MV4-11 cells; in assay [1]) were 941 nM and 16 nM, respectively.
Taken in the same sequence, the figures for `COc1cc2ncnc(N3CCC(OC(=O)Nc4ccc(OC5CCCC5)cc4)CC3)c2cc1OC` [Compound 55, (4-Cyclopentyloxy-phenyl)-carbamic acid 1-(6,7-dimethoxy-quinazolin-4-yl)-piperidin-4-yl ester] were 560 nM and 420 nM.
For `CC(C)c1ccc(NC(=O)NC2CCN(c3ncnc4cc(OCCN5CCCC5=O)ccc34)CC2)cc1` [Compound 74, 1-(4-Isopropyl-phenyl)-3-(1-{7-[2-(2-oxo-pyrrolidin-1-yl)-ethoxy]-quinazolin-4-yl}-piperidin-4-yl)-urea], in that order: 177 nM and 4 nM.
In the case of `COc1cc2ncnc(N3CCCC(COC(=O)Nc4ccc(OC5CCCC5)cc4)C3)c2cc1OC` (centres unmarked) [Compound 57, (4-Cyclopentyloxy-phenyl)-carbamic acid 1-(6,7-dimethoxy-quinazolin-4-yl)-piperidin-3-ylmethyl ester], the half-maximal inhibitory concentration (IC50) (commonly the concentration that inhibits the measured activity by half) in the assay on MV4-11 cells is 172 nM; in assay [1], 46 nM.
For `COCCOc1ccc2c(N3CCC(NC(=O)Nc4ccc(C(C)C)cc4)CC3)ncnc2c1` [Compound 73, 1-(4-Isopropyl-phenyl)-3-{1-[7-(2-methoxy-ethoxy)-quinazolin-4-yl]-piperidin-4-yl}-urea], in that order: 208 nM and 109 nM.
With `COc1ccc2c(N3CCC(NC(=O)Nc4ccc(C(C)C)cc4)CC3)ncnc2c1` [Compound 65, 1-(4-Isopropyl-phenyl)-3-[1-(7-methoxy-quinazolin-4-yl)-piperidin-4-yl]-urea], the values for the IC50 (in the assay with MV4-11 cells; in assay [1]) were 321 nM and 178 nM, respectively.
Taken in the same sequence, the figures for `CC(C)c1ccc(NC(=O)NC2CCN(c3ncnc4cc(F)ccc34)C2)cc1` (centres unmarked) [Compound 69, 1-[1-(7-Fluoro-quinazolin-4-yl)-pyrrolidin-3-yl]-3-(4-isopropyl-phenyl)-urea] were 128 nM and < 1 nM.
For `COc1cc2ncnc(N3CCC(NC(=O)Nc4ccc(OC(C)C)cc4)CC3)c2cc1OC` [Compound 58, 1-[1-(6,7-Dimethoxy-quinazolin-4-yl)-piperidin-4-yl]-3-(4-isopropoxy-phenyl)-urea], in that order: 7 nM and 180 nM.
For `COc1cc2ncnc(N3CCC(NC(=O)Nc4ccc(N5CCCC5)nc4)CC3)c2cc1OC` [Compound 68, 1-[1-(6,7-Dimethoxy-quinazolin-4-yl)-piperidin-4-yl]-3-(6-pyrrolidin-1-yl-pyridin-3-yl)-urea], in that order: 134 nM and 16 nM.
Regarding `COCCOc1ccc2c(N3CCC(NC(=O)Nc4ccc(C(C)C)cc4)C3)ncnc2c1` (centres unmarked) [Compound 71, 1-(4-Isopropyl-phenyl)-3-{1-[7-(2-methoxy-ethoxy)-quinazolin-4-yl]-pyrrolidin-3-yl}-urea], the half-maximal inhibitory concentration (IC50) (with MV4-11 cells; in assay [1]) was 1 nM each time.
Regarding `CC(C)c1ccc(NC(=O)NC2CCN(c3ncnc4cc(OCCN5CCCC5=O)ccc34)C2)cc1` (centres unmarked) [Compound 70, 1-(4-Isopropyl-phenyl)-3-(1-{7-[2-(2-oxo-pyrrolidin-1-yl)-ethoxy]-quinazolin-4-yl}-pyrrolidin-3-yl)-urea], the IC50 with MV4-11 cells is 21 nM; in assay [1], 80 nM.
For `COc1cc2ncnc(N3CCC(NC(=O)Nc4ccc(N5CCCC5)cc4)CC3)c2cc1OC` [Compound 60, 1-[1-(6,7-Dimethoxy-quinazolin-4-yl)-piperidin-4-yl]-3-(4-pyrrolidin-1-yl-phenyl)-urea], in that order: 528 nM and 18 nM.
For `COc1cc2ncnc(N3CCC(NC(=O)Nc4ccc(N(C)C)cc4)C3)c2cc1OC` (centres unmarked) [Compound 52, 1-[1-(6,7-Dimethoxy-quinazolin-4-yl)-pyrrolidin-3-yl]-3-(4-dimethylamino-phenyl)-urea], the half-inhibitory concentration (IC50) in the assay with MV4-11 cells stood at 830 nM; in assay [1], 6600 nM.
Taken in the same sequence, the figures for `COc1cc2ncnc(N3CCC(NC(=O)Nc4ccc(N5CCOCC5)cc4)CC3)c2cc1OC` [Compound 59, 1-[1-(6,7-Dimethoxy-quinazolin-4-yl)-piperidin-4-yl]-3-(4-morpholin-4-yl-phenyl)-urea] were 410 nM and 43 nM.
For `COc1cc2ncnc(N3CCC(NC(=O)Nc4ccc(OC5CCCC5)cc4)CC3)c2cc1OC` [Compound 67, 1-(4-Cyclopentyloxy-phenyl)-3-[1-(6,7-dimethoxy-quinazolin-4-yl)-piperidin-4-yl]-urea], in that order: 470 nM and 1400 nM.
